# Assay results reported in PMC11279778 (2024).
# System: Bcl-2 G-quadruplex (2F8U, 23-mer with 15,16-G-to-T mutations) (DNA, G4) GGGCGCGGGAGGAATTGGGCGGG
# Assay: CD melting at 265 nm
# Details: 100 mM KCl; 10 mM Tris-HCl pH 7.2; 3 eq ligand, 2 µM DNA
row,SMILES,ΔTm [°C]
1,CC[n+]1c(/C=C/c2ccc3c(c2)c2ccccc2n3CCCCn2ccnc2)sc2ccccc21,6.3
2,CC[n+]1c(/C=C/c2ccc3c(c2)c2ccccc2n3CCCCn2cncn2)sc2ccccc21,3.0
3,CCn1c2ccccc2c2cc(/C=C/c3sc4ccccc4[n+]3CC)ccc21,3.1
